Assay results reported in patent US20250127868A1, “HYPERACTIVATING LIPID NANOPARTICLES” (Corner Therapeutics, Inc., priority 2022, published 2025).

What was measured:
Type in all cases: cell-based
human PBMCs [1] = test: IFNγ secretion by human PBMCs (ELISA); conditions: two days post-activation
Experimental: (§1) Isolation of PBMCs from Whole Blood. PBMCs were isolated from whole blood using density gradient centrifugation with Ficoll-Paque PLUS (Cytivia). Whole blood was diluted 1:1 with PBS, layered on top of Ficoll-Paque PLUS and centrifuged at 1000×g for 30 minutes at room temperature. PBMCs were collected, washed twice in PBS, and incubated with Ack lysis buffer (Lonza) to remove any remaining red blood cells.
(§2) Cell Culture and Stimulation. Immediately following isolation, PBMCs were plated in RPMI medium containing 10% FBS, 50 units/mL penicillin, […] streptomycin, 2 mM L-glutamine, 1 mM sodium pyruvate, and […] beta-mercaptoethanol (R10 media). […]
(§3) Endpoint Analyses. […] Half of the media volume in the wells was collected for cytokine quantification by Enzyme-Linked Immunosorbent Assay (ELISA) or Lumit™ Bioluminescent assay, while the remaining media and cells were used to quantify cell viability by assessing metabolic activity.
(§4) Quantification of Cytokine Secretion. IL-1β secretion from human PBMCs was assessed using one of the following kits: ELISA MAX Deluxe Set Human IL-1β kit (Biolegend), Invitrogen Human IL-1β kit, or the Lumit™ Human IL-1β Immunoassay (Promega). IFNγ secretion from human PBMCs was assessed using the ELISA MAX Deluxe Set Human IFNγ (Biolegend) and TNFα secretion from human PBMCs was assessed using the Human TNFα Uncoated ELISA kit (Invitrogen). […]

canine PBMCs = test: IL-1β secretion by canine PBMCs (ELISA); conditions: two days post-activation, R848 1 μg/mL, 22:0 LYSO PC 82.5 μM, LPS 1 μg/mL, Alum 30 μg/mL
human PBMCs [2] = test: IL-1β secretion by human PBMCs (ELISA or Lumit); conditions: two days post-activation, R848 1 μg/mL, 22:0 LYSO PC 82.5 μM
Experimental: as §1, §2, §3, §4

| Molecule | IFNγ secretion, fold change per donor relative to R848 alone (human PBMCs [1]) | IL-1β secretion (canine PBMCs) | IL-1β secretion (human PBMCs [2]) |
| --- | --- | --- | --- |
| Nc1nc2c(ncn2[C@@H]2O[C@@H]3COP(=O)(O)O[C@H]4[C@@H](O)[C@H](n5cnc6c(N)ncnc65)O[C@@H]4COP(=O)(O)O[C@@H]2[C@@H]3O)c(=O)[nH]1 [2′3′cGAMP, reference compound] | neither GM-CSF nor 2′3′cGAMP elicited a substantial fold change in IFNγ secretion | neither GM-CSF nor 2′3′cGAMP induced significant IL-1β secretion | – |
| GM-CSF: human GM-CSF (Peprotech), added at 10 ng/ml | neither GM-CSF nor 2′3′cGAMP elicited a substantial fold change in IFNγ secretion | neither GM-CSF nor 2′3′cGAMP induced significant IL-1β secretion | did not induce levels of IL-1β secretion from human PBMCs significantly above background levels |
